{"source": "patent US11541018B2", "about": "(priority 2016, dated 2023)", "origin": "cited, not measured here", "key": {"[1]": {"settings": "active agent (base)"}, "[2]": {"settings": "active agent (base)", "remark": "listed apart in the source"}}, "data": [{"substance": "ropinole", "values": [{"measurement": "Water solubility", "setting": "[1]", "value": 133, "unit": "mg/mL"}, {"measurement": "LogP", "setting": "[2]", "value": 2.7}]}]}
